Measured values from US20100092526A1, “NANOEMULSION THERAPEUTIC COMPOSITIONS AND METHODS OF USING THE SAME” (NanoBio Corporation, priority 2008, published 2010).
Values after ≈ are worked out from the molar mass of the structure shown.

Legend:
[1] = tested on: subset (23) of gram-negative isolates; test: Cidality (MBC/MIC ratio) against a subset (23) of gram-negative isolates; format: cell-based, gram-negative bacteria; conditions: 23 isolates
[2] = tested on: P. aeruginosa, B. cenocepacia, A. baumannii and S. maltophilia; test: MIC/MBC against all strains of Example 8; conditions: for MBC: read-out: MBC90, against all strains
[3] = tested on: methicillin-resistant Staphylococcus aureus (MRSA); test: Susceptibility (MIC/MBC) of MRSA clinical isolates; format: cell-based; conditions: Staphylococcus aureus; MRSA isolates; read-out: MIC90
Stenotrophomonas strains = test: Checkerboard synergy study (FIC/FBC index); format: cell-based; conditions: for Summary of synergy data (overall interaction): Stenotrophomonas, combined with P4075EC & 1 mM EDTA
Acinetobacter strains = test: Checkerboard synergy study (FIC/FBC index); format: cell-based; conditions: for Summary of synergy data (overall interaction): Acinetobacter, combined with P4075EC & 1 mM EDTA
Burkholderia strains = test: Checkerboard synergy study (FIC/FBC index); format: cell-based; conditions: for Summary of synergy data (overall interaction): Burkholderia, combined with P4075EC & 5 mM EDTA
[4] = isolate NB42, combined with P4075EC+EDTA
[5] = isolate NB43, combined with P4075EC+EDTA
[6] = isolate NB44, combined with P4075EC+EDTA
[7] = isolate NB45, combined with P4075EC+EDTA
[8] = isolate Steno 1, combined with P4075EC+EDTA
[9] = isolate Steno 2, combined with P4075EC+EDTA
[10] = isolate Steno 3, combined with P4075EC+EDTA
[11] = isolate Steno 4, combined with P4075EC+EDTA
[12] = isolate Steno 6, combined with P4075EC+EDTA
[13] = isolate Steno 8, combined with P4075EC+EDTA
[14] = share of Stenotrophomonas strains with synergy, combined with P4075EC+EDTA
[15] = isolate NB31, combined with P4075EC+EDTA
[16] = isolate NB32, combined with P4075EC+EDTA
[17] = isolate NB33, combined with P4075EC+EDTA
[18] = isolate NB34, combined with P4075EC+EDTA
[19] = isolate NB35, combined with P4075EC+EDTA
[20] = isolate NB36, combined with P4075EC+EDTA
[21] = isolate NB37, combined with P4075EC+EDTA
[22] = isolate NB38, combined with P4075EC+EDTA
[23] = isolate NB39, combined with P4075EC+EDTA
[24] = isolate NB40, combined with P4075EC+EDTA
[25] = share of 10 Acinetobacter strains with synergy, combined with P4075EC+EDTA
[26] = isolate NB21, combined with P4075EC+EDTA
[27] = isolate NB22, combined with P4075EC+EDTA
[28] = isolate NB23, combined with P4075EC+EDTA
[29] = isolate NB24, combined with P4075EC+EDTA
[30] = isolate NB25, combined with P4075EC+EDTA
[31] = isolate NB26, combined with P4075EC+EDTA
[32] = isolate NB27, combined with P4075EC+EDTA
[33] = isolate NB28b, combined with P4075EC+EDTA
[34] = isolate NB29, combined with P4075EC+EDTA
[35] = isolate NB30, combined with P4075EC+EDTA
[36] = share of ten Burkholderia strains with synergy, combined with P4075EC+EDTA

C[C@H]1COc2c(N3CCN(C)CC3)c(F)cc3c(=O)c(C(=O)O)cn1c23 [Levofloxacin]
number of strains with MBC/MIC ratio 1 ([1]; Cidal): 9 number of strains
number of strains with MBC/MIC ratio 2 ([1]; Cidal): 8 number of strains
number of strains with MBC/MIC ratio 4 ([1]; Cidal): 1 number of strains
number of strains with MBC/MIC ratio >8x ([1]; Static): 5 number of strains
MIC90 [2]: 16 µg/mL (≈ 44.3 µM)
MBC [2]: 16 µg/mL (≈ 44.3 µM)
MIC90 [3]: 32 µg/mL (≈ 88.6 µM)

NC[C@H]1O[C@H](O[C@H]2[C@H](O)[C@@H](O[C@H]3O[C@H](CO)[C@@H](O)[C@H](N)[C@H]3O)[C@H](N)C[C@@H]2N)[C@H](N)C[C@@H]1O [Tobramycin]
Summary of synergy data (overall interaction) (Stenotrophomonas strains): No Interference
Summary of synergy data (overall interaction) (Acinetobacter strains): No Interference
MIC90 [2]: > 32 µg/mL
MBC [2]: > 32 µg/mL
Summary of synergy data (overall interaction) (Burkholderia strains): No Interference

Colistin
Summary of synergy data (overall interaction) (Stenotrophomonas strains): Synergy
FBC (Stenotrophomonas strains; [4]): 1.28
FIC (Stenotrophomonas strains; [4]): 0.08
Synergy (FBC) (Stenotrophomonas strains; [4]): indifferent
Synergy (FIC) (Stenotrophomonas strains; [4]): yes
FBC (Stenotrophomonas strains; [5]): 0.15
FIC (Stenotrophomonas strains; [5]): 0.08
Synergy (FBC) (Stenotrophomonas strains; [5]): yes
Synergy (FIC) (Stenotrophomonas strains; [5]): yes
FBC (Stenotrophomonas strains; [6]): 0.57
FIC (Stenotrophomonas strains; [6]): 1.01
Synergy (FBC) (Stenotrophomonas strains; [6]): indifferent
Synergy (FIC) (Stenotrophomonas strains; [6]): indifferent
FBC (Stenotrophomonas strains; [7]): 0.45
FIC (Stenotrophomonas strains; [7]): 0.04
Synergy (FBC) (Stenotrophomonas strains; [7]): yes
Synergy (FIC) (Stenotrophomonas strains; [7]): yes
FBC (Stenotrophomonas strains; [8]): 0.11
FIC (Stenotrophomonas strains; [8]): 0.08
Synergy (FBC) (Stenotrophomonas strains; [8]): yes
Synergy (FIC) (Stenotrophomonas strains; [8]): yes
FBC (Stenotrophomonas strains; [9]): 0.04
FIC (Stenotrophomonas strains; [9]): 0.09
Synergy (FBC) (Stenotrophomonas strains; [9]): yes
Synergy (FIC) (Stenotrophomonas strains; [9]): yes
FBC (Stenotrophomonas strains; [10]): 0.14
FIC (Stenotrophomonas strains; [10]): 0.09
Synergy (FBC) (Stenotrophomonas strains; [10]): yes
Synergy (FIC) (Stenotrophomonas strains; [10]): yes
FBC (Stenotrophomonas strains; [11]): 1.14
FIC (Stenotrophomonas strains; [11]): 0.46
Synergy (FBC) (Stenotrophomonas strains; [11]): indifferent
Synergy (FIC) (Stenotrophomonas strains; [11]): yes
FBC (Stenotrophomonas strains; [12]): 0.02
FIC (Stenotrophomonas strains; [12]): 0.09
Synergy (FBC) (Stenotrophomonas strains; [12]): yes
Synergy (FIC) (Stenotrophomonas strains; [12]): yes
FBC (Stenotrophomonas strains; [13]): 0.07
FIC (Stenotrophomonas strains; [13]): 0.09
Synergy (FBC) (Stenotrophomonas strains; [13]): yes
Synergy (FIC) (Stenotrophomonas strains; [13]): yes
% FBC Synergy (Stenotrophomonas strains; [14]): 70%
% FIC Synergy (Stenotrophomonas strains; [14]): 90%
Summary of synergy data (overall interaction) (Acinetobacter strains): No Interference
FBC (Acinetobacter strains; [15]): 2.44
FIC (Acinetobacter strains; [15]): 0.83
Synergy (FBC) (Acinetobacter strains; [15]): indifferent
Synergy (FIC) (Acinetobacter strains; [15]): indifferent
FBC (Acinetobacter strains; [16]): 1.36
FIC (Acinetobacter strains; [16]): 0.58
Synergy (FBC) (Acinetobacter strains; [16]): indifferent
Synergy (FIC) (Acinetobacter strains; [16]): indifferent
FBC (Acinetobacter strains; [17]): 2
FIC (Acinetobacter strains; [17]): 0.33
Synergy (FBC) (Acinetobacter strains; [17]): indifferent
Synergy (FIC) (Acinetobacter strains; [17]): yes
FBC (Acinetobacter strains; [18]): 1.10
FIC (Acinetobacter strains; [18]): 0.46
Synergy (FBC) (Acinetobacter strains; [18]): indifferent
Synergy (FIC) (Acinetobacter strains; [18]): yes
FBC (Acinetobacter strains; [19]): 0.97
FIC (Acinetobacter strains; [19]): 0.72
Synergy (FBC) (Acinetobacter strains; [19]): indifferent
Synergy (FIC) (Acinetobacter strains; [19]): indifferent
FBC (Acinetobacter strains; [20]): 2
FIC (Acinetobacter strains; [20]): 0.56
Synergy (FBC) (Acinetobacter strains; [20]): indifferent
Synergy (FIC) (Acinetobacter strains; [20]): indifferent
FBC (Acinetobacter strains; [21]): 1.00
FIC (Acinetobacter strains; [21]): 0.63
Synergy (FBC) (Acinetobacter strains; [21]): indifferent
Synergy (FIC) (Acinetobacter strains; [21]): indifferent
FBC (Acinetobacter strains; [22]): 0.68
FIC (Acinetobacter strains; [22]): 0.77
Synergy (FBC) (Acinetobacter strains; [22]): indifferent
Synergy (FIC) (Acinetobacter strains; [22]): indifferent
FBC (Acinetobacter strains; [23]): 1.22
FIC (Acinetobacter strains; [23]): 0.72
Synergy (FBC) (Acinetobacter strains; [23]): indifferent
Synergy (FIC) (Acinetobacter strains; [23]): indifferent
FBC (Acinetobacter strains; [24]): 0.91
FIC (Acinetobacter strains; [24]): 0.63
Synergy (FBC) (Acinetobacter strains; [24]): indifferent
Synergy (FIC) (Acinetobacter strains; [24]): indifferent
% FBC Synergy (Acinetobacter strains; [25]): 0%
% FIC Synergy (Acinetobacter strains; [25]): 20%
Summary of synergy data (overall interaction) (Burkholderia strains): No Interference
FBC (Burkholderia strains; [26]): 2.07
FIC (Burkholderia strains; [26]): 1.45
Synergy (FBC) (Burkholderia strains; [26]): indifferent
Synergy (FIC) (Burkholderia strains; [26]): indifferent
FBC (Burkholderia strains; [27]): 2.29
FIC (Burkholderia strains; [27]): 1.37
Synergy (FBC) (Burkholderia strains; [27]): indifferent
Synergy (FIC) (Burkholderia strains; [27]): indifferent
FBC (Burkholderia strains; [28]): 2.00
FIC (Burkholderia strains; [28]): 1.01
Synergy (FBC) (Burkholderia strains; [28]): indifferent
Synergy (FIC) (Burkholderia strains; [28]): indifferent
FBC (Burkholderia strains; [29]): 2.00
FIC (Burkholderia strains; [29]): 1.72
Synergy (FBC) (Burkholderia strains; [29]): indifferent
Synergy (FIC) (Burkholderia strains; [29]): indifferent
FBC (Burkholderia strains; [30]): 3.00
FIC (Burkholderia strains; [30]): 2.00
Synergy (FBC) (Burkholderia strains; [30]): indifferent
Synergy (FIC) (Burkholderia strains; [30]): indifferent
FBC (Burkholderia strains; [31]): 0.04
FIC (Burkholderia strains; [31]): 0.56
Synergy (FBC) (Burkholderia strains; [31]): yes
Synergy (FIC) (Burkholderia strains; [31]): yes
FBC (Burkholderia strains; [32]): 1.64
FIC (Burkholderia strains; [32]): 1.93
Synergy (FBC) (Burkholderia strains; [32]): indifferent
Synergy (FIC) (Burkholderia strains; [32]): indifferent
FBC (Burkholderia strains; [33]): 1.54
FIC (Burkholderia strains; [33]): 0.29
Synergy (FBC) (Burkholderia strains; [33]): indifferent
Synergy (FIC) (Burkholderia strains; [33]): yes
FBC (Burkholderia strains; [34]): 1.68
FIC (Burkholderia strains; [34]): 1.61
Synergy (FBC) (Burkholderia strains; [34]): indifferent
Synergy (FIC) (Burkholderia strains; [34]): indifferent
FBC (Burkholderia strains; [35]): 1.86
FIC (Burkholderia strains; [35]): 0.02
Synergy (FBC) (Burkholderia strains; [35]): indifferent
Synergy (FIC) (Burkholderia strains; [35]): yes
% FBC Synergy (Burkholderia strains; [36]): 10%
% FIC Synergy (Burkholderia strains; [36]): 30%
